Data: ChEMBL document CHEMBL1142791, “Design, synthesis, and evaluation of 2-phenoxy-indan-1-one derivatives as acetylcholinesterase inhibitors” (Bioorg Med Chem Lett, 2005)
pIC50: −log10 of the molar value.

Assays:
[1] = target: Butyrylcholinesterase (Rattus norvegicus, UniProt Q9JKC1); assay: In vitro inhibitory concentration against butyrylcholinesterase was determined using rat serum homogenate
[2] = target: T1, Acetylcholinesterase (Rattus norvegicus, UniProt P37136)
T1 sequence (P37136 whole entry): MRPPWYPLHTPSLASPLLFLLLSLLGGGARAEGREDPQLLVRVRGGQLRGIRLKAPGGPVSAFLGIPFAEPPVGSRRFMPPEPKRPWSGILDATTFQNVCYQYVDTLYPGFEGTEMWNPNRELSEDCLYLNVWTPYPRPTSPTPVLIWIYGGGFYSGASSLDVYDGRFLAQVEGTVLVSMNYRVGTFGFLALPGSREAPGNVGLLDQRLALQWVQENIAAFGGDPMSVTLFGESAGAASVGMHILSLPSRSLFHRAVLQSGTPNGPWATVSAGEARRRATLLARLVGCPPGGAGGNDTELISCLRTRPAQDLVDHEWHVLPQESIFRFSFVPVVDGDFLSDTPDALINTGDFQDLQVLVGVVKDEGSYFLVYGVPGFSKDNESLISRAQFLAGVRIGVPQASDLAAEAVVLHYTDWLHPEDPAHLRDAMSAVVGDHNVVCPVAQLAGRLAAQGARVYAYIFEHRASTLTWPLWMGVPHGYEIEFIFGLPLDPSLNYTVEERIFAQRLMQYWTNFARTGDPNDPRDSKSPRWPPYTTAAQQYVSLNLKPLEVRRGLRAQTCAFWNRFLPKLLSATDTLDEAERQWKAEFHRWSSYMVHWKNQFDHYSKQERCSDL
Description: In vitro inhibitory concentration against rat cortex acetylcholinesterase

Sequence of Butyrylcholinesterase (Q9JKC1 whole entry): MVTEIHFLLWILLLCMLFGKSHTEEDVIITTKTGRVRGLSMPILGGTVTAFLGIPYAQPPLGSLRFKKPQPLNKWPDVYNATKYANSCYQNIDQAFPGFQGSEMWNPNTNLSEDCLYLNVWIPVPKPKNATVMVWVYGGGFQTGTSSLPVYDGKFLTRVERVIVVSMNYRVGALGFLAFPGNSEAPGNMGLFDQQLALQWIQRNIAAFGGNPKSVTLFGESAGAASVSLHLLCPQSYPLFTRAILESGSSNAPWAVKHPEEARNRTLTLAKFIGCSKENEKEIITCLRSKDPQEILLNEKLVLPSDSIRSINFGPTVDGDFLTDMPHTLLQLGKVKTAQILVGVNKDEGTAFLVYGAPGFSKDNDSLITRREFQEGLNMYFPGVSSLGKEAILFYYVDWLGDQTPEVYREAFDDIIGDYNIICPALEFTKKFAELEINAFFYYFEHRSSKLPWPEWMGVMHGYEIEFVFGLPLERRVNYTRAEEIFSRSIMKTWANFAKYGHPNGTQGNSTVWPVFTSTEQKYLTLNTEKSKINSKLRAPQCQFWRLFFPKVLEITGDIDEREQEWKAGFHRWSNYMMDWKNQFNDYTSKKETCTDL

Question: `CCN(CC)Cc1cccc(OC2Cc3cc(OC)c(OC)cc3C2=O)c1` (stereo not drawn) was tested. Which pIC50 [1] did it give?
Answer: 3.72

Question: And the pIC50 [2]?
Answer: 5.64

Question: Which results are given for `CCN(CC)C(C)c1ccc(OC2Cc3cc(OC)c(OC)cc3C2=O)cc1` (stereo not drawn)?
Answer: pIC50 [1]: 3.63; pIC50 [2]: 6.66

Question: `COc1cc2c(cc1OC)C(=O)C(Oc1ccc(CN3CCCCC3)cc1)C2` (stereo not drawn) was tested. Which pIC50 [1] did it give?
Answer: 3.58

Question: What about the pIC50 [2] of the same molecule?
Answer: 6.82

Question: What does the source list for `COc1cc2c(cc1OC)C(=O)C(Oc1ccc(CN3CCCC3)cc1)C2` (stereo not drawn)?
Answer: pIC50 [1]: 4.07; pIC50 [2]: 7.30

Question: With `COc1cc2c(cc1OC)C(=O)C(Oc1cccc(CN(C)C)c1)C2` (stereo not drawn) as the molecule, how does the pIC50 [1] read?
Answer: 3.68

Question: With `COc1cc2c(cc1OC)C(=O)C(Oc1ccc(CN3CCN(C)CC3)cc1)C2` (stereo not drawn) as the molecule, how does the pIC50 [1] read?
Answer: 3.46

Question: What about the pIC50 [2] of the same molecule?
Answer: 5.85

Question: With `COc1cc2c(cc1OC)C(=O)C(Oc1cccc(C(C)N3CCN(C)CC3)c1)C2` (stereo not drawn) as the molecule, how does the pIC50 [1] read?
Answer: 3.60

Question: What about the pIC50 [2] of the same molecule?
Answer: 4.75

Question: `COc1cc2c(cc1OC)C(=O)C(Oc1ccc(C(C)N3CCN(C)CC3)cc1)C2` (stereo not drawn) was tested. Which pIC50 [1] did it give?
Answer: 3.41

Question: What about the pIC50 [2] of the same molecule?
Answer: 5.53

Question: How did the pIC50 [1] turn out when `COc1cc2c(cc1OC)C(=O)C(Oc1cccc(C(C)N3CCOCC3)c1)C2` (stereo not drawn) was run?
Answer: 3.61

Question: `COc1cc2c(cc1OC)C(=O)C(Oc1cccc(CN3CCCC3)c1)C2` (stereo not drawn) was tested. Which pIC50 [1] did it give?
Answer: 4.40

Question: Which results are given for `COc1cc2c(cc1OC)C(=O)C(Oc1cccc(C(C)N3CCCCC3)c1)C2` (stereo not drawn)?
Answer: pIC50 [1]: 3.80; pIC50 [2]: 5.45

Question: With `COc1cc2c(cc1OC)C(=O)C(Oc1cccc(C(C)N(C)C)c1)C2` (stereo not drawn) as the molecule, how does the pIC50 [1] read?
Answer: 3.54

Question: What about the pIC50 [2] of the same molecule?
Answer: 6.09

Question: How did the pIC50 [1] turn out when `COc1cc2c(cc1OC)C(=O)C(Oc1ccc(C(C)N3CCCCC3)cc1)C2` (stereo not drawn) was run?
Answer: 3.75

Question: What about the pIC50 [2] of the same molecule?
Answer: 6.89

Question: `CCN(CC)Cc1ccc(OC2Cc3cc(OC)c(OC)cc3C2=O)cc1` (stereo not drawn) was tested. Which pIC50 [1] did it give?
Answer: 3.60

Question: And the pIC50 [2]?
Answer: 7.00

Question: What does the source list for `COc1cc2c(cc1OC)C(=O)C(Oc1ccc(C(C)N3CCCC3)cc1)C2` (stereo not drawn)?
Answer: pIC50 [1]: 3.89; pIC50 [2]: 6.85

Question: `COc1cc2c(cc1OC)C(=O)C(Oc1ccc(C(C)N(C)C)cc1)C2` (stereo not drawn) was tested. Which pIC50 [1] did it give?
Answer: 2.86

Question: `COc1cc2c(cc1OC)C(=O)C(Oc1cccc(CN3CCN(C)CC3)c1)C2` (stereo not drawn) was tested. Which pIC50 [1] did it give?
Answer: 3.68

Question: And the pIC50 [2]?
Answer: 5.19

Question: What does the source list for `COc1cc2c(cc1OC)C(=O)C(Oc1cccc(C(C)N3CCCC3)c1)C2` (stereo not drawn)?
Answer: pIC50 [1]: 3.67; pIC50 [2]: 5.71

Question: With `COc1cc2c(cc1OC)C(=O)C(Oc1ccc(CN(C)C)cc1)C2` (stereo not drawn) as the molecule, how does the pIC50 [1] read?
Answer: 2.70

Question: What about the pIC50 [2] of the same molecule?
Answer: 6.68

Question: Which results are given for `COc1cc2c(cc1OC)C(=O)C(Oc1ccc(C(C)N3CCOCC3)cc1)C2` (stereo not drawn)?
Answer: pIC50 [1]: 3.46; pIC50 [2]: 5.50

Question: What does the source list for `CCN(CC)C(C)c1cccc(OC2Cc3cc(OC)c(OC)cc3C2=O)c1` (stereo not drawn)?
Answer: pIC50 [1]: 3.70; pIC50 [2]: 5.87

Question: `COc1cc2c(cc1OC)C(=O)C(Oc1ccc(CN3CCOCC3)cc1)C2` (stereo not drawn) was tested. Which pIC50 [1] did it give?
Answer: 3.42

Question: And the pIC50 [2]?
Answer: 5.89

Question: Which results are given for `COc1cc2c(cc1OC)C(=O)C(Oc1cccc(CN3CCCCC3)c1)C2` (stereo not drawn)?
Answer: pIC50 [1]: 4.26; pIC50 [2]: 5.50

Question: `COc1cc2c(cc1OC)C(=O)C(Oc1cccc(CN3CCOCC3)c1)C2` (stereo not drawn) was tested. Which pIC50 [1] did it give?
Answer: 3.66
